Laboratory results from US20250049717A1, “DRY POWDER FORMULATIONS OF NARROW SPECTRUM KINASE INHIBITORS” (Pulmatrix Operating Company, Inc., priority 2021, published 2025).

Assay: Excipient compatibility study, stressed storage, impurities by HPLC
Type: physicochemical
Method: Compound A Content/Purity using HPLC. A high performance liquid chromatography (HPLC) method utilizing a reverse phase C18 column coupled to an ultraviolet (UV) detector has been developed for the identification, bulk content, assay, CUPMD and impurities analysis of formulations of Compound A. The reverse phase column is equilibrated to 40° C. and the autosampler is set to 5° C. The mobile phases, 10 mM ammonium acetate with 0.1% TFA (mobile phase A) and acetonitrile (mobile phase B) are used in a gradient elution from a ratio of 70:30 (A:B) to 0:100 (A:B), over the course of a 20 minute run time. Detection is by UV at 260 nm and the injection volume is 30 μL. Compound A content in powders are quantified relative to a standard curve. Formula strength can be determined by measuring the amount of Compound A in the bulk powder with HPLC, then dividing the measured amount by the nominal amount of Compound A in the powder. A formula strength of a dry powder disclosed herein may be between about 90% and about 105%, e.g., about 93%, about 94%, about 95%, about 96%, about 97%, about 98%, about 99%, about 100%, about 101%, or about 102%.
The spray dried Compound A formulations were exposed to stressed storage conditions for up to two weeks to assess the potential for excipient-induced degradation. The powders were added to 4 mL vials and exposed to 60° C./30% RH, 70° C./10% RH and 80° C./50% RH. Testing for impurities occurred at t=0, t=3 days, t=7 days and t=14 days for samples held at 60° C./30% RH and 70° C./10% RH and at t=0, t=3 days and t=7 days for samples held at 80° C./50% RH. Control samples including Formulation VI, comprising 50% micronized Compound A, 45% sodium chloride, and 5% polysorbate 80 as well as as-received micronized Compound A were included in an attempt to decouple particle size effects and/or the degradation potential of polysorbate 80.

Total Impurities (60 C./30% RH, 3 days): 0.28 % w/w
Total Known Impurities (60 C./30% RH, 3 days): 0.20 % w/w
Total Unknown Impurities (60 C./30% RH, 3 days): 0.08 % w/w
Total Impurities (60 C./30% RH, 7 days): 0.26 % w/w
Total Known Impurities (60 C./30% RH, 7 days): 0.17 % w/w
Total Unknown Impurities (60 C./30% RH, 7 days): 0.09 % w/w
Total Impurities (60 C./30% RH, 14 days): 0.21 % w/w
Total Known Impurities (60 C./30% RH, 14 days): 0.14 % w/w
Total Unknown Impurities (60 C./30% RH, 14 days): 0.07 % w/w
Total Impurities (70 C./10% RH, 3 days): 0.29 % w/w
Total Known Impurities (70 C./10% RH, 3 days): 0.19 % w/w
Total Unknown Impurities (70 C./10% RH, 3 days): 0.11 % w/w
Total Impurities (70 C./10% RH, 7 days): 0.31 % w/w
Total Known Impurities (70 C./10% RH, 7 days): 0.17 % w/w
Total Unknown Impurities (70 C./10% RH, 7 days): 0.14 % w/w
Total Impurities (70 C./10% RH, 14 days): 0.20 % w/w
Total Known Impurities (70 C./10% RH, 14 days): 0.13 % w/w
Total Unknown Impurities (70 C./10% RH, 14 days): 0.08 % w/w
Total Impurities (80 C./50% RH, 3 days): 0.24 % w/w
Total Known Impurities (80 C./50% RH, 3 days): 0.16 % w/w
Total Unknown Impurities (80 C./50% RH, 3 days): 0.09 % w/w
Total Impurities (80 C./50% RH, 7 days): 0.32 % w/w
Total Known Impurities (80 C./50% RH, 7 days): 0.14 % w/w
Total Unknown Impurities (80 C./50% RH, 7 days): 0.18 % w/w
Total Impurities (time point 0 days): 0.29 % w/w
Total Known Impurities (time point 0 days): 0.22 % w/w
Total Unknown Impurities (time point 0 days): 0.07 % w/w
SMILES: Cc1ccc(-n2nc(C(C)(C)C)cc2NC(=O)Nc2ccc(Oc3ccnc(Nc4ccccc4)n3)c3ccccc23)cc1 [Compound A, 1-(3-tert-butyl-1-p-tolyl-1H-pyrazol-5-yl)-3-(4-(2-(phenylamino)pyrimidin-4-yloxy)naphthalen-1-yl)urea]
